Assay results as given in patent US20250221405A1, “ROOT NODULE FORMATION-PROMOTING COMPOSITION, AND ROOT HAIR FORMATION-PROMOTING COMPOSITION” (KANEKA CORPORATION, priority 2022, published 2025).

How the values were obtained:
soybeans (Fukuyutaka) [1] = assay: Experimental Example 2: soil irrigation with composition comprising rhizobium materials, number of root nodules; type: in vivo, soybean; conditions: Table 2-2, irrigation
Procedure: For each of the following treatment, to a mixture of rhizobium materials (rhizobium and azospirillum) mixed with water at a proportion of 10 g/L, SF, SL, or RL was added in the following amount to prepare a solution comprising the rhizobium materials and SF, SL, or RL (a composition for promoting root nodule formation).
A 9 cm poly pot was filled with culture soil and seeded with three seeds of soybeans (Fukuyutaka) in each pot.
(§1) After seeding, the seeds were cultivated in a greenhouse set at 28° C. during the day (14h) and 18° C. at night (10h).
(§2) Seven days after the seeding, the soybeans in each pot were thinned to one plant, and each pot was irrigated with 4.3 ml of the composition for promoting root nodule formation (in the treatment T1, a mixture of rhizobium materials (rhizobium and azospirillum) mixed with water at a proportion of 10 g/L).
(§3) Twenty-one days after the irrigation, the roots were washed with water so as not to remove root nodules, the culture soil was removed, and then, the root nodules formed on the roots were collected.
(§4) After the seeding, each pot was fertilized with ½ Hoagland solution (50 mL) once a week. In addition, experiments were conducted on eight pots (eight plants) in each treatment.
(§5) A plurality of experiments were conducted by changing the type of the composition for promoting root nodule formation and the like. Tables 2-1 and 2-2 show the date of seeding, the date of irrigating, the date of investigating the number of root nodules, the composition for promoting root nodule formation, and the investigation result of the number of root nodules. Note that the number of root nodules is indicated by a relative value with T1 taken as 100, with a numerical value in parentheses indicating the average number of root nodules actually measured (pieces/plant).

soybeans (Fukuyutaka) [2] = assay: Experimental Example 3: seed coating with biosurfactant and/or KVP, number of root nodules; type: in vivo, soybean; conditions: Table 3-2
Procedure: A solution of SF, SL, or RL and/or KVP dissolved in water (a composition for promoting root nodule formation) as the following amount in each of the following treatments was prepared. The seeds of soybeans (Fukuyutaka) were coated using the solution in an amount of 800 μL/100 g seed to obtain coated seeds.
(§6) A 9 cm poly pot was filled with culture soil and seeded with three coated seeds in each pot.
(§7) After seeding, the coated seeds were cultivated in a greenhouse set at 28° C. during the day (14h) and 18° C. at night (10h).
Seven days after the seeding, the soybeans in each pot were thinned to one plant, and each pot was irrigated with 4.3 mL of a mixture of rhizobium materials (rhizobium and azospirillum) mixed with water at a proportion of 10 g/L.
as §3, §4
A plurality of experiments were conducted by changing the type of the composition for promoting root nodule formation and the like. Tables 3-1 and 3-2 show the amounts of SF, SL, or RL and/or KVP in the composition for promoting root nodule formation and the investigation result of the number of root nodules. Note that the number of root nodules is indicated by a relative value with Tl taken as 100, with a numerical value in parentheses indicating the average number of root nodules actually measured (pieces/plant).

soybeans (Fukuyutaka) [3] = assay: Experimental Example 1: seed coating, number of root nodules; type: in vivo, soybean; conditions: Table 1-2
Procedure: A solution of SF, SL, or RL dissolved in water (a composition for promoting root nodule formation) as the following amount in each of the following treatments was prepared. The seeds of soybeans (Fukuyutaka) were coated using the solution in an amount of 800 μL/100 g seed to obtain coated seeds.
as §6, §7
Seven days after the seeding, the soybeans in each pot were thinned to one plant, and each pot was irrigated with 4.3 ml of a mixture of rhizobium materials (rhizobium and azospirillum) mixed with water at a proportion of 10 g/L.
as §3
After the seeding, each pot was fertilized with ½ Hoagland solution once a week. In addition, experiments were conducted on eight pots (eight plants) in each treatment.
as §5, with “1-1” for “2-1”, “1-2” for “2-2”, “nodules, the amount of SF, SL, or RL in” for “nodules,”, “Tl” for “T1”

soybeans (Fukuyutaka) [4] = assay: Experimental Example 4: soil irrigation with biosurfactant and/or KVP, root nodule number and weight, root weight; type: in vivo, soybean; conditions: with rhizobium materials
Procedure: For each of the following treatments, to a mixture of rhizobium materials (rhizobium and azospirillum) mixed with water at a proportion of 10 g/L, SF, SL, or RL was added in the following amount to prepare a solution comprising the rhizobium materials and SF, SL, or RL (a composition for promoting root nodule formation).
A 9 cm poly pot was filled with sterilized fertilizer-free culture soil (Heiwa) and seeded three seeds of soybeans (Fukuyutaka) in each pot.
as §1, §2, §3, §4
as §5, with “4-1” for “2-1”, “4-2” for “2-2”, “Tl” for “T1”, “(pieces/plant). In addition, fresh root nodule weight means the weight of root nodules before drying on the day of collection and is indicated by a relative value with Tl taken as 100. Dried underground part weight means the weight of roots dried for 48 hours at 80° C. and indicated by a relative value with Tl taken as 100.” for “(pieces/plant).”

[5] = system: Japanese mustard spinach (Haru no Senbatsu); assay: Experimental Example 5: foliar application, microscopic observation of root hair; type: in vivo; parameters: key: those with a significant root hair increase observed were evaluated as AA; those with a root hair increase observed were evaluated as BB; those with no root hair increase observed were evaluated as CC; those with an overall or partial root hair decrease observed were evaluated as DD
Procedure: An observation tank formed with ½ MS agar medium (0.8% agar) was prepared in an acrylic tank. Japanese mustard spinach (Haru no Senbatsu) was seeded near the surface of the observation tank. After seeding, the Japanese mustard spinach was cultivated in an incubator set in a light period (6:00-18:00, temperature 26° C., illuminance 120 μmol/m^2·s) and a dark period (18:00-6:00, temperature 18° C.). Twelve to fourteen days after the seeding, the following liquid (a composition for promoting root hair formation) was applied on the leaf surfaces of the plant body (foliar application) so as not to drip on the agar in each of the following treatments. […] A plurality of experiments were conducted by changing the date of seeding, the date of foliar application, the date of observation, and the type of the composition for promoting root hair formation and the like. Tables 5 to 9 show the composition for promoting root hair formation, the outline of operation and the observation results of root hair.

[6] = seed coating SL or RL 0.5 g/t seed (diluted 16000 times)
[7] = seed coating SL or RL 5 g/t seed (diluted 1600 times)
[8] = Table 4-2, single agent diluted 1000 times
[9] = Table 4-2, single agent diluted 10000 times

Substance | Number of Root Nodules, average number actually measured (soybeans (Fukuyutaka) [1]; diluted 1000 times) [pieces/plant] | Number of Root Nodules, relative value with T1 taken as 100 (soybeans (Fukuyutaka) [1]; diluted 1000 times) | Number of Root Nodules, average number actually measured (soybeans (Fukuyutaka) [1]; diluted 5000 times) [pieces/plant] | Number of Root Nodules, relative value with T1 taken as 100 (soybeans (Fukuyutaka) [1]; diluted 5000 times) | Number of Root Nodules, average number actually measured (soybeans (Fukuyutaka) [1]; diluted 10000 times) [pieces/plant] | Number of Root Nodules, relative value with T1 taken as 100 (soybeans (Fukuyutaka) [1]; diluted 10000 times) | Number of Root Nodules, average number actually measured (soybeans (Fukuyutaka) [2]; [6]) [pieces/plant] | Number of Root Nodules, relative value with T1 taken as 100 (soybeans (Fukuyutaka) [2]; [6]) | Number of Root Nodules, average number actually measured (soybeans (Fukuyutaka) [2]; [7]) [pieces/plant] | Number of Root Nodules, relative value with T1 taken as 100 (soybeans (Fukuyutaka) [2]; [7]) | Number of Root Nodules, average number actually measured (soybeans (Fukuyutaka) [3]; seed coating 1 g/t seed) [pieces/plant] | Number of Root Nodules, relative value with T1 taken as 100 (soybeans (Fukuyutaka) [3]; seed coating 1 g/t seed) | Number of Root Nodules, average number actually measured (soybeans (Fukuyutaka) [3]; seed coating 10 g/t seed) [pieces/plant] | Number of Root Nodules, relative value with T1 taken as 100 (soybeans (Fukuyutaka) [3]; seed coating 10 g/t seed) | Dried Underground Part Weight, relative value with T1 taken as 100 (soybeans (Fukuyutaka) [4]; [8]) | Fresh Root Nodule Weight, relative value with T1 taken as 100 (soybeans (Fukuyutaka) [4]; [8]) | Number of Root Nodules, average number actually measured (soybeans (Fukuyutaka) [4]; [8]) [pieces/plant] | Number of Root Nodules, relative value with T1 taken as 100 (soybeans (Fukuyutaka) [4]; [8]) | Dried Underground Part Weight, relative value with T1 taken as 100 (soybeans (Fukuyutaka) [4]; [9]) | Fresh Root Nodule Weight, relative value with T1 taken as 100 (soybeans (Fukuyutaka) [4]; [9]) | further results
rhamnolipid [RL] | 13.6 | 116 | 13.6 | 116 | 13.4 | 115 | 24.6 | 105 | 25.3 | 107 | 16.0 | 137 | 13.2 | 113 | 105 | 115 | 19.5 | 116 | 105 | 114 | Number of Root Nodules, average number actually measured (soybeans (Fukuyutaka) [3]; seed coating 50 g/t seed): 15.3 pieces/plant; Number of Root Nodules, relative value with T1 taken as 100 (soybeans (Fukuyutaka) [3]; seed coating 50 g/t seed): 131; Number of Root Nodules, average number actually measured (soybeans (Fukuyutaka) [4]; [9]): 18.5 pieces/plant; Number of Root Nodules, relative value with T1 taken as 100 (soybeans (Fukuyutaka) [4]; [9]): 110; Observation Result (root hair) ([5]; Table 7, aqueous solution diluted 1000 times): BB; Observation Result (root hair) ([5]; Table 7, aqueous solution diluted 2000 times): BB; Observation Result (root hair) ([5]; Table 7, aqueous solution diluted 5000 times): BB
sophorolipid [SL] | 15.7 | 134 | 12.1 | 104 | 11.9 | 102 | 24.5 | 104 | 24.9 | 106 | 15.3 | 131 | 13.3 | 114 | 102 | 113 | 18.5 | 110 | 185 | 105 | Number of Root Nodules, average number actually measured (soybeans (Fukuyutaka) [3]; seed coating 0.1 g/t seed): 11.8 pieces/plant; Number of Root Nodules, relative value with T1 taken as 100 (soybeans (Fukuyutaka) [3]; seed coating 0.1 g/t seed): 101; Number of Root Nodules, average number actually measured (soybeans (Fukuyutaka) [4]; [9]): 17.8 pieces/plant; Number of Root Nodules, relative value with T1 taken as 100 (soybeans (Fukuyutaka) [4]; [9]): 105; Observation Result (root hair) ([5]; Table 6, aqueous solution diluted 1000 times): BB; Observation Result (root hair) ([5]; Table 6, aqueous solution diluted 2000 times): BB
